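The compound was tested at five concentrations on cells cultured in 96-well plates, with a 48-hour exposure period. GI50: concentration for 50% inhibition of growth. TGI: concentration producing complete growth inhibition.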

Test systems include M14 melanoma; NCI-H23 lung; A549 NSCLC; CCRF-CEM leukemia; SNB-75 CNS; MDA-MB-231 breast; SK-MEL-2 melanoma; SK-MEL-5 melanoma; TK-10 renal; SK-MEL-28 melanoma.
What all share (experiment): NCI tumour cell line growth inhibition, 48 h

On to `CNCCn1c(=O)c2cc(OC)c(OC)cc2c2ccc3cc4c(cc3c21)OCO4`, for which the GI50 was 0.0786 µM with M14 melanoma; 0.112 µM with NCI-H23 lung; 0.116 µM in the assay with A549 NSCLC; 0.0203 µM with CCRF-CEM leukemia; 0.127 µM in the assay on SNB-75 CNS; 0.335 µM in the assay on MDA-MB-231 breast. Besides, the GI50 in the assay on SK-MEL-2 melanoma was 0.533 µM; in the assay on SK-MEL-5 melanoma, 0.0862 µM; in the assay with TK-10 renal, 0.513 µM; in the assay with SK-MEL-28 melanoma it was 0.555 µM. In addition, the TGI in the assay with M14 melanoma is 0.399 µM; with NCI-H23 lung, 0.556 µM; in the assay on A549 NSCLC, 0.638 µM; with CCRF-CEM leukemia, 0.952 µM; in the assay on SNB-75 CNS, 5.53 µM; with MDA-MB-231 breast, 3.66 µM. The TGI in the assay with SK-MEL-2 melanoma was 1.53 µM; in the assay with SK-MEL-5 melanoma, 0.199 µM; in the assay with TK-10 renal it was 1.56 µM; in the assay with SK-MEL-28 melanoma, 2.69 µM.

As to `CCOC(=O)/C=C/C1=C(c2cccs2)c2ccccc2CC1`, the GI50 with M14 melanoma was 32 µM; with NCI-H23 lung, 28.8 µM; in the assay with A549 NSCLC, 33.8 µM; with CCRF-CEM leukemia it was 27.3 µM; in the assay on SNB-75 CNS it was 25.5 µM; in the assay with MDA-MB-231 breast, 20.5 µM. Further, the GI50 with SK-MEL-2 melanoma is 35.9 µM; in the assay with SK-MEL-5 melanoma, 16.8 µM; with TK-10 renal it was 17.9 µM; in the assay on SK-MEL-28 melanoma, 26.3 µM. Also, the TGI is above 100 µM in the assay on M14 melanoma; 89.4 µM in the assay with NCI-H23 lung; above 100 µM in the assay with A549 NSCLC; 73.1 µM with CCRF-CEM leukemia; 82.5 µM in the assay with SNB-75 CNS; 64.7 µM in the assay on MDA-MB-231 breast. For the same compound, the TGI is above 100 µM with SK-MEL-2 melanoma, 31.8 µM with SK-MEL-5 melanoma, 64.3 µM in the assay on TK-10 renal and 75 µM in the assay with SK-MEL-28 melanoma.

Consider `Cc1ccc2nc(-c3ccc(N(C)C)c(Br)c3)cn2c1`, for which the GI50 was above 100 µM in the assay on M14 melanoma; above 100 µM with NCI-H23 lung; above 100 µM in the assay with A549 NSCLC; 6.52 µM with CCRF-CEM leukemia; 31.3 µM in the assay on SNB-75 CNS; above 100 µM with MDA-MB-231 breast. Further, the GI50 in the assay with SK-MEL-2 melanoma was above 100 µM; in the assay on SK-MEL-5 melanoma, 5.78 µM; in the assay on TK-10 renal, above 100 µM; in the assay on SK-MEL-28 melanoma it was 10.5 µM. Also, the TGI in the assay on M14 melanoma, in the assay with NCI-H23 lung, in the assay on A549 NSCLC, in the assay on CCRF-CEM leukemia, with SNB-75 CNS and in the assay with MDA-MB-231 breast was above 100 µM throughout. Besides, the TGI in the assay on SK-MEL-2 melanoma, in the assay on SK-MEL-5 melanoma, in the assay on TK-10 renal and in the assay with SK-MEL-28 melanoma was above 100 µM in each case.

For the compound `Nc1ccccc1C#C/C=C\C#Cc1ccccc1[N+](=O)[O-]`, the GI50 in the assay with M14 melanoma was 8.08 µM; in the assay with NCI-H23 lung it was 12.4 µM; with A549 NSCLC, 4.42 µM; with CCRF-CEM leukemia, 3.75 µM; in the assay on SNB-75 CNS, 13.3 µM; in the assay on MDA-MB-231 breast it was 2.61 µM. In addition, the GI50 was 12.9 µM in the assay on SK-MEL-2 melanoma, 3.08 µM in the assay on SK-MEL-5 melanoma, 28.2 µM in the assay with TK-10 renal and 15.4 µM with SK-MEL-28 melanoma. In addition, the TGI in the assay on M14 melanoma turned out to be 26.9 µM; with NCI-H23 lung it was 38.5 µM; in the assay with A549 NSCLC it was 21.3 µM; in the assay with CCRF-CEM leukemia, 18.1 µM; with SNB-75 CNS, 58.3 µM; in the assay on MDA-MB-231 breast it was 14.6 µM. Also, the TGI was 34.7 µM in the assay on SK-MEL-2 melanoma, 18.6 µM in the assay with SK-MEL-5 melanoma, above 100 µM in the assay on TK-10 renal and 34.8 µM with SK-MEL-28 melanoma.

For the compound `CCC[n+]1cc2cc(OC)c(OC)cc2c2c1-c1cc3c(cc1C2)OCO3`, the GI50 in the assay with M14 melanoma is 7.64 µM; with NCI-H23 lung, 2.34 µM; with A549 NSCLC it was 18.3 µM; with CCRF-CEM leukemia it was 2.53 µM; with SNB-75 CNS it was 0.843 µM; in the assay with MDA-MB-231 breast, 4.71 µM. The GI50 in the assay on SK-MEL-2 melanoma was 2.65 µM; in the assay with SK-MEL-5 melanoma, 2.09 µM; in the assay on TK-10 renal it was 22.6 µM; with SK-MEL-28 melanoma, 3.03 µM. Also, the TGI was 22 µM with M14 melanoma; 13.2 µM with NCI-H23 lung; 35.5 µM in the assay on A549 NSCLC; 4.52 µM in the assay on SNB-75 CNS; 15.4 µM with MDA-MB-231 breast; 9.18 µM in the assay with SK-MEL-2 melanoma. Moreover, the values for the TGI with SK-MEL-5 melanoma, in the assay on TK-10 renal and with SK-MEL-28 melanoma were 7.11 µM, 58.9 µM and 10.6 µM, respectively.

Regarding `OCCNc1ncnc2c1ncn2Cc1cccc(COc2cccc(OCc3cccc(Cn4cnc5c(NCCO)ncnc54)c3)c2)c1`, the GI50 with M14 melanoma is 17.2 µM; in the assay on A549 NSCLC, 24.9 µM; with CCRF-CEM leukemia, 11.3 µM; with SNB-75 CNS, 12.3 µM; with MDA-MB-231 breast, 14.5 µM; in the assay with SK-MEL-2 melanoma it was 16 µM. The GI50 in the assay on SK-MEL-5 melanoma is 16.7 µM; with TK-10 renal, 14.7 µM; in the assay on SK-MEL-28 melanoma, 14.6 µM. Further, the TGI with M14 melanoma turned out to be 33.3 µM; in the assay on A549 NSCLC, 50.7 µM; with CCRF-CEM leukemia, 33.1 µM; in the assay with SNB-75 CNS it was 27.4 µM; in the assay on MDA-MB-231 breast, 29.3 µM; in the assay on SK-MEL-2 melanoma, 35.2 µM. For the same compound, the TGI in the assay on SK-MEL-5 melanoma was 31 µM; with TK-10 renal, 29.9 µM; in the assay with SK-MEL-28 melanoma it was 28.4 µM.

Take `CCOc1cc(/C=N\Nc2nnc(C)n2N)c(C)cc1N(CCCl)CCCl`: the GI50 with M14 melanoma was 0.776 µM; in the assay with NCI-H23 lung it was 0.8 µM; with A549 NSCLC it was 0.638 µM; with CCRF-CEM leukemia, 0.655 µM; in the assay on SNB-75 CNS, 0.692 µM; with MDA-MB-231 breast it was 1.39 µM. For the same compound, the GI50 with SK-MEL-2 melanoma is 2.11 µM; in the assay with SK-MEL-5 melanoma, 0.259 µM; in the assay with TK-10 renal, 1.97 µM; in the assay with SK-MEL-28 melanoma, 1.97 µM. The TGI with M14 melanoma is above 49.8 µM; with NCI-H23 lung, 9.49 µM; in the assay with A549 NSCLC, above 20.6 µM; in the assay with CCRF-CEM leukemia, 32.5 µM; in the assay with SNB-75 CNS it was 6.5 µM; in the assay with MDA-MB-231 breast, 6.29 µM. The TGI stood at 5.33 µM in the assay on SK-MEL-2 melanoma, 1.05 µM in the assay with SK-MEL-5 melanoma, 51.4 µM with TK-10 renal and 53.8 µM in the assay on SK-MEL-28 melanoma.

The record behind these values is PubChem BioAssay (NCI).
